Reference: ChEMBL document CHEMBL5346887, “Design and evaluation of dibenzoazepine-tetrahydroisoquinoline hybrids as potential P-glycoprotein inhibitors against multidrug resistant K562/A02 cells” (Eur J Med Chem, 2023)
pEC50, pIC50: −log10 of the molar value. Activity calls are given as the source filed them. The calls are words filed in the database; no cut-off is given here.

Assays:
[1] = tested on: K562/A02; assay: Reversal fold, ratio of ADR IC50 to test compound IC50 for reversal of multi-drug resistance in human K562/A02 cells; assay type: functional
[2] = tested on: K562/A02; assay: Reversal of adriamycin resistance in human K562/A02 cells incubated for 48 hrs; assay type: functional, cell-based; details: K562/A02, 48 h
[3] = tested on: K562/A02; assay: Reversal fold, ratio of ADR IC50 to test compound IC50 for reversal of multi-drug resistance in human K562/A02 cells at 0.4 uM; assay type: functional
[4] = tested on: K562/A02; assay: Cytotoxicity against human K562/A02 cells assessed as inhibition of cell growth incubated for 72 hrs by CCK-8 assay; assay type: functional, cell-based; details: K562/A02, 72 h
[5] = tested on: K562/A02; assay: Effect on P-gp expression in human K562/A02 cells at 0.5 to 8 uM measured after 24 hrs by Western blot analysis; assay type: functional, cell-based; details: dose 0.5-8 µM
[6] = tested on: K562/A02; assay: Antitumor activity against human K562/A02 cells xenografted in BALB/c nude mouse assessed as reduction in tumor volume at 20 mg/kg, ip measured upto 14 days by vernier caliper analysis; assay type: functional; details: time <= 14 day
[7] = tested on: K562; assay: Reversal of multi-drug resistance in human K562 cells increase in intracellular Rh123 level at 0.5 to 8 uM incubated for 30 mins by flow cytometry analysis; assay type: functional, cell-based; details: dose 0.5-8 µM
[8] = target: Cytochrome P450 3A4 (Homo sapiens, UniProt P08684); assay: Inhibition of CYP3A4 (unknown origin) using luciferin-IPA as substrate preincubated for 1 hr followed by substrate addition and measured after 1 hr by luminometer assay; assay type: ADME
[9] = tested on: K562/A02; assay: Antitumor activity against human K562/A02 cells xenografted in BALB/c nude mouse assessed as reduction in tumor weight at 20 mg/kg, ip measured upto 14 days in presence of ADR by vernier caliper analysis; assay type: functional, organism-based; details: time <= 14.0 day
[10] = target: ATP-dependent translocase ABCB1 (Homo sapiens, UniProt P08183); assay: Binding affinity to p-gp in human K562/A02 cells assessed as increase in thermal stabilization at 50 uM incubated for 1 hr by CETSA analysis; assay type: cell-based; details: k562/a02, 1 h
[11] = tested on: K562/A02; assay: Antitumor activity against human K562/A02 cells xenografted in BALB/c nude mouse assessed as reduction in tumor volume at 20 mg/kg, ip measured upto 14 days in presence of ADR by vernier caliper analysis; assay type: functional; details: time <= 14 day
[12] = tested on: K562/A02; assay: Reversal of multi-drug resistance in human K562/A02 cells increase in intracellular Rh123 level incubated for 30 mins by flow cytometry analysis; assay type: functional, cell-based; details: dose 0.5-8 µM
[13] = tested on: K562/A02; assay: Antitumor activity against human K562/A02 cells xenografted in BALB/c nude mouse assessed as reduction in tumor volume at 2 mg/kg, ip measured upto 14 days by vernier caliper analysis; assay type: functional; details: time <= 14 day
[14] = tested on: K562; assay: cells; details: Homo sapiens, K562, 72 h
Description: Cytotoxicity against human K562 cells assessed as inhibition of cell growth incubated for 72 hrs by CCK-8 assay

Cytochrome P450 3A4, sequence (P08684 whole entry): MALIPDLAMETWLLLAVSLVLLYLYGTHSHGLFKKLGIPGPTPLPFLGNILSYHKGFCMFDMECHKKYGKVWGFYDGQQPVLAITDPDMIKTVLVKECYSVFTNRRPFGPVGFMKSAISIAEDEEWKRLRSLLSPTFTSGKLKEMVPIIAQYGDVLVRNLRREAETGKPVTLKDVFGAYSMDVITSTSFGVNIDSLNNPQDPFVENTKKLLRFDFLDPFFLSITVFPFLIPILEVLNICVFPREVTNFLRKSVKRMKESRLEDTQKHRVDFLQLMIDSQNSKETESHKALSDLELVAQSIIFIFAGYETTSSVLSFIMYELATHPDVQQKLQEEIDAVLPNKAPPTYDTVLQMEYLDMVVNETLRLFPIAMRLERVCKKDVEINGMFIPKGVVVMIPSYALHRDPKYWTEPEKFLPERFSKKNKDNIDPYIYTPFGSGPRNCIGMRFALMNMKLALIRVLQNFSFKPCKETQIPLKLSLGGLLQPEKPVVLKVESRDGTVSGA
ATP-dependent translocase ABCB1, sequence (P08183 whole entry): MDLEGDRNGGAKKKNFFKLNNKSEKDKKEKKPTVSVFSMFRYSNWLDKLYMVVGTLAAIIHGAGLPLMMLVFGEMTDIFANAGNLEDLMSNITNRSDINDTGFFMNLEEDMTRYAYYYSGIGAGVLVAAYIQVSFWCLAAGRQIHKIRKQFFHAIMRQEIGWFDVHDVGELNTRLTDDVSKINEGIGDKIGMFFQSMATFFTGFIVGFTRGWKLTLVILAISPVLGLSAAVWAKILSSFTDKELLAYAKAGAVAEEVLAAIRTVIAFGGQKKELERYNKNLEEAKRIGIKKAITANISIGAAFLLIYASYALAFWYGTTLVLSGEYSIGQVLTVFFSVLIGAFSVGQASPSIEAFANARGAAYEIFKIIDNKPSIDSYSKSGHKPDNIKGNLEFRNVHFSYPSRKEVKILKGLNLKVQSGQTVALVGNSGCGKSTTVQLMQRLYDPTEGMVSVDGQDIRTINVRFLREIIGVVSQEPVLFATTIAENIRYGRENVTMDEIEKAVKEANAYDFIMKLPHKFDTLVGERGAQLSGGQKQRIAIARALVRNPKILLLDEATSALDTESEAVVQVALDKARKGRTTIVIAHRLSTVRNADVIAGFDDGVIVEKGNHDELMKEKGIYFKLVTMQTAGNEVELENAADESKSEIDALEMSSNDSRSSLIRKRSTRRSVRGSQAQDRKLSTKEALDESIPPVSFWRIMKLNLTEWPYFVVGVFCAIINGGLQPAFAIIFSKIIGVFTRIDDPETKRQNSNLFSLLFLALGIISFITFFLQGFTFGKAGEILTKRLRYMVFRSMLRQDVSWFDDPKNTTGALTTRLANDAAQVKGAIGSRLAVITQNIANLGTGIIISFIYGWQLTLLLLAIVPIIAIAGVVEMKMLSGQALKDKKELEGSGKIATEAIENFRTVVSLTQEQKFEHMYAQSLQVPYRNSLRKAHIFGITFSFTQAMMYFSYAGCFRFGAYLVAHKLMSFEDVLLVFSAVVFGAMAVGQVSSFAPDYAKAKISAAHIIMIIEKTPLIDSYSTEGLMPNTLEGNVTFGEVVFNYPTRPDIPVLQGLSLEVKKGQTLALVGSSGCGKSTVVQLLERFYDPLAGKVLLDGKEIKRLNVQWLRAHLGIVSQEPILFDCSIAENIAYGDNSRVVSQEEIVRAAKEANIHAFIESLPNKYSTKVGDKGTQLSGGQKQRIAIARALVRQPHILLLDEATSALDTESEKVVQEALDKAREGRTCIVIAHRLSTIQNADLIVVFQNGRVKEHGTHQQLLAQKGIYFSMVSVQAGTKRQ

Compound | Ratio IC50 [1] | Ratio IC50 [3] | pIC50 [4] | other results
COc1cc2c(c3c1OCO3)-c1c(cc(OC)c3c1OCO3)CN(CCc1ccc3c(c1)OCO3)C2 | 20.58 | 12.78 | – | pEC50 [2]: 6.91
COc1cc2c(cc1OC)CN(Cc1ccc(N3Cc4cc(OC)c5c(c4-c4c(cc(OC)c6c4OCO6)C3)OCO5)cc1)CC2 | 374.09 | 46.82 | 4.87 | –
COc1cc2c(cc1OC)CN(CCc1ccccc1N1Cc3cc(OC)c4c(c3-c3c(cc(OC)c5c3OCO5)C1)OCO4)CC2 | 0.85 | – | < 4.00 | –
COc1ccc2c(c1)CCN(CCCCCCN1Cc3cc(OC)c4c(c3-c3c(cc(OC)c5c3OCO5)C1)OCO4)C2 | 4.23 | – | < 4.00 | –
COc1cc2c(cc1OC)CN(CCc1ccc(N3Cc4cc(OC)c5c(c4-c4c(cc(OC)c6c4OCO6)C3)OCO5)cc1)CC2 | 93.17 | 93.17 | 4.02 | Activity [5]: inactive; pEC50 [2]: 7.31; Activity [6]: 525.75 mm3; Activity [7]: Active; pIC50 [8]: 5.58; Activity [9]: Active; Activity [10]: Active; Activity [11]: 158.27 mm3; Activity [12]: Dose-Dependent Effect
COc1ccc2c(c1)CCN(CCc1ccc(N3Cc4cc(OC)c5c(c4-c4c(cc(OC)c6c4OCO6)C3)OCO5)cc1)C2 | 8.61 | – | < 4.00 | –
COc1cc2c(c3c1OCO3)-c1c(cc(OC)c3c1OCO3)CN(c1ccc(CN3CCCCC3)cc1)C2 | 113.14 | 21.82 | 4.71 | –
COc1ccc(C(=O)Nc2ccccc2C(=O)Nc2ccc(CCN3CCc4cc(OC)c(OC)cc4C3)cc2)cc1OC | 81.9 | – | 5.04 | pEC50 [2]: 7.52
COc1cc2c(c3c1OCO3)-c1c(cc(OC)c3c1OCO3)CN(c1ccc(CCN3CCOCC3)cc1)C2 | 16.7 | – | 5.18 | –
COc1cc2c(cc1OC)CN(CCN1Cc3cc(OC)c4c(c3-c3c(cc(OC)c5c3OCO5)C1)OCO4)CC2 | 4.29 | – | 5.11 | –
COc1cccc2c1C(=O)c1c(O)c3c(c(O)c1C2=O)C[C@@](O)(C(=O)CO)C[C@@H]3O[C@H]1C[C@H](N)[C@H](O)[C@H](C)O1.Cl [DOXORUBICIN HYDROCHLORIDE] | – | – | 5.62 | Activity [13]: 526.45 mm3; pIC50 [14]: 9.00
COc1cc2c(c3c1OCO3)-c1c(cc(OC)c3c1OCO3)CN(c1ccc(CCN3CCCCC3)cc1)C2 | – | 12.52 | 5.49 | –
COc1cc2c(c3c1OCO3)-c1c(cc(OC)c3c1OCO3)CN(c1ccc(CCN3CCNCC3)cc1)C2 | – | 14.23 | 5.33 | –
COc1cc2c(cc1OC)CN(CCCCCCN1Cc3cc(OC)c4c(c3-c3c(cc(OC)c5c3OCO5)C1)OCO4)CC2 | – | 8.24 | 5.69 | –
COc1ccc2c(c1)CCN(CCN1Cc3cc(OC)c4c(c3-c3c(cc(OC)c5c3OCO5)C1)OCO4)C2 | – | 4.87 | 5.29 | –
COc1cc2c(cc1OC)CN(CCCN1Cc3cc(OC)c4c(c3-c3c(cc(OC)c5c3OCO5)C1)OCO4)CC2 | 2.01 | – | 4.78 | –
COc1ccc2c(c1)CCN(CCCN1Cc3cc(OC)c4c(c3-c3c(cc(OC)c5c3OCO5)C1)OCO4)C2 | – | 1.67 | 5.27 | –
